# Assay results from patent US11583532B2, “Triazolopyrimidine derivatives for use as ghrelin o-acyl transferase (GOAT) inhibitors” (Boehringer Ingelheim International GmbH, priority 2018, dated 2023).
# Values joined by “and” are separate entries in the source; they are usually repeats but may differ in a detail not shown here. Equal entries are not always repeated.
# Biological target: human GOAT (ghrelin O-acyl transferase) (Homo sapiens (Human), UniProt Q96T53)
# Assay: Determination of hGOAT activity in HEK293 cells after incubation with test compound (acyl-ghrelin ELISA)
# Assay type: cell-based
# Conditions: HEK293 cells stably transfected with preproghrelin and human GOAT cDNA; octanoate-BSA 100 μM; 5 hours incubation; acyl-ghrelin in medium by ELISA; 8 compound concentrations
# Experimental: Determination of hGOAT Activity in HEK293 Cells after incubation with test compound
# HEK293 cells stably transfected with two expression vectors, one coding for preproghrelin cDNA and a second for the expression of human GOATcDNA are used as a cellular model. After feeding the cells with octanoic acid for 5 hours, acyl-ghrelin is measured in cell culture medium by an ELISA procedure.
# Cellline: Hek293 hGOAT/PPGhrl Clone #1B8Sodium octanoate, Sigma, Cat.-No. C5038
# BSA: Sigma, Cat.-No. A8806
# BD Poly-D-Lysin 384-well Plates, black-clear polystyrene BD Bioscience Cat.-No. […] ELISA human acylated Ghrelin Kit purchased from Bertin Pharman (detailed composition of buffers e.g. wash-puffer, ELISA buffer not known)
# All further reagents used were of highest analytical grade available.
# Cells are plated with a density of 5000 cells/well in 384-well poly-D-lysin plates and incubated for 1 day at 37° C., 5% CO2 in DMEM medium, 10% FCS, 1×NEAA, Puromycin (0.5 μg/ml) and G418 (1 mg/ml). Then the medium is changed to a identical medium without FCS and containing Octanoate-BSA (final concentration 100 μM each) and compound in DMSO (final DMSO concentration 0.3%). After incubation for 5 hours acylghrelin in the medium is measured by ELISA.
# The medium sample is diluted 1:25 in Elisa buffer, a 25 μl aliquot is transferred to a 384-well ELISA plate previously washed 4 times with 100 μL wash buffer, and 25 μl tracer-solution is added. After incubation overnight (˜20 h) at 4° C. temperature the plate is washed 4 times with 100 μl wash-buffer per well. Finally 50 μl Ellman's reagent is added to each well and the plate is incubated in the dark for 20 minutes. The absorbance is measured at 405 nm in an Envision multilabel reader and the amount of acylated ghrelin is calculated according to a acylated ghrelin standard curve provided in the same plate.
# The analysis of the data is performed by calculation of the percentage of acyl-ghrelin produced in the presence of test compound compared to the amount of acyl-ghrelin produced in the vehicle control samples. An inhibitor of the GOAT enzyme will give values between 100% CTL (no inhibition) and 0% CTL (complete inhibition).
# IC50 values are calculated with Assay Explorer or other suited software based on curve fitting of results of 8 different compound concentrations.
# Sequence of human GOAT (ghrelin O-acyl transferase) (Q96T53 whole entry): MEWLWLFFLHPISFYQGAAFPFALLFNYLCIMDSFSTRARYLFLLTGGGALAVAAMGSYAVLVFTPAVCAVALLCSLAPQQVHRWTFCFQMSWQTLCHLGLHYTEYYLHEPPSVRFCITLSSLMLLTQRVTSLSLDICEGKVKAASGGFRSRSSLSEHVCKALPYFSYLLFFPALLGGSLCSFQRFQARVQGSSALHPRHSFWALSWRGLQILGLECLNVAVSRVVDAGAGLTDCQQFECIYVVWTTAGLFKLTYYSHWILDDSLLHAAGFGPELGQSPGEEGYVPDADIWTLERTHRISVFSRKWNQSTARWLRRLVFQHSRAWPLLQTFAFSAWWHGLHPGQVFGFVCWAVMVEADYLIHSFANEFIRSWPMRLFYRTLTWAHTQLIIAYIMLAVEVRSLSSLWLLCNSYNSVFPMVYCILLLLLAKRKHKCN
row,Structure (SMILES),IC50
1,"Cc1nc2ncnn2c(N)c1Cc1cccc(-c2cn(C)nc2C(F)(F)F)n1 [Example 13.1, 5-Methyl-6-({6-[1-methyl-3-(trifluoromethyl)-1H-pyrazol-4-yl]pyridin-2-yl}methyl)-[1,2,4]triazolo[1,5-a]pyrimidin-7-amine]",1.7 nM
2,Cc1nc2ncnn2c(N)c1Cc1cccc(-c2c[nH]nc2C(F)(F)F)n1 [Example 13.2],2.1 nM
3,"Cc1nc2ncnn2c(N)c1Cc1ccc(Br)c(C2(C#N)CC(F)(F)C2)n1 [Example 14.1, 1-[6-({7-Amino-5-methyl-[1,2,4]triazolo[1,5-a]pyrimidin-6-yl}methyl)-3-bromopyridin-2-yl]-3,3-difluorocyclobutane-1-carbonitrile]",0.31 nM
4,"COC(=O)c1cc(Cc2c(C)nc3ncnn3c2N)ccc1OC(F)(F)F [Example 15.1, Methyl 5-({7-amino-5-methyl-[1,2,4]triazolo[1,5-a]pyrimidin-6-yl}methyl)-2-(trifluoromethoxy)benzoate]",0.83 nM
5,"Cc1nc2ncnn2c(N)c1Cc1ccc(OC(F)(F)F)c(C(=O)N(C)C)c1 [Example 15.2, 5-({7-Amino-5-methyl-[1,2,4]triazolo[1,5-a]pyrimidin-6-yl}methyl)-N,N-dimethyl-2-(trifluoromethoxy)benzamide]",3.5 nM and 5.4 nM
6,Cc1nc2ncnn2c(N)c1Cc1ccc(OC(F)(F)F)c(C(=O)NC(C)C)c1 [Example 15.3],8.6 nM
7,Cc1nc2ncnn2c(N)c1Cc1ccc(OC(F)(F)F)c(C(N)=O)c1 [Example 15.4],9.3 nM
8,"Cc1nc2ncnn2c(N)c1Cc1ccc(-c2c[nH]nc2C(F)(F)F)c(N)n1 [Example 16.1, 6-({7-Amino-5-methyl-[1,2,4]triazolo[1,5-a]pyrimidin-6-yl}methyl)-3-[3-(trifluoromethyl)-1H-pyrazol-4-yl]pyridin-2-amine]",3.1 nM
9,"Nc1c(Cc2ccc(C(F)(F)F)cc2)c(C(F)F)nc2ncnn12 [Example 17.1, 5-(Difluoromethyl)-6-{[4-(trifluoromethyl)phenyl]methyl}-[1,2,4]triazolo[1,5-a]pyrimidin-7-amine]",0.95 nM
10,Cc1nc2ncnn2c(N)c1Cc1ccc(C(F)(F)F)cc1Br [Example 17.2],5 nM
11,"Cc1nc2ncnn2c(N)c1Cc1ccc(S(=O)(=O)C(F)(F)F)cc1 [Example 18.1, 5-Methyl-6-[(4-trifluoromethanesulfonylphenyl)methyl]-[1,2,4]triazolo[1,5-a]pyrimidin-7-amine]",4.2 nM
12,"Cc1nc2ncnn2c(N)c1Cc1ccc([S+]([O-])C(F)(F)F)cc1 (centres unmarked) [Example 19.1, 5-M ethyl-6-[(4-trifluoromethanesulfinylphenyl)methyl]-[1,2,4]triazolo[1,5-a]pyrimidin-7-amine]",4.9 nM
13,"Cc1nc2ncnn2c(N)c1Cc1ccc(OC(F)(F)F)c(C#N)c1 [Example 20.1, 5-({7-Amino-5-methyl-[1,2,4]triazolo[1,5-a]pyrimidin-6-yl}methyl)-2-(trifluoromethoxy)benzonitrile]",9.2 nM
14,"Cc1nc2ncnn2c(N)c1Cc1ccc(C(F)(F)F)cc1F [Example 21.1, 6-{[2-Fluoro-4-(trifluoromethyl)phenyl]methyl}-5-methyl-[1,2,4]triazolo[1,5-a]pyrimidin-7-amine]",8.1 nM
15,"Cc1nc2ncnn2c(N)c1Cc1ccc(Br)c(C(=O)OCC(F)(F)F)c1 [Example 22.1, 2,2,2-Trifluoroethyl 5-({7-amino-5-methyl-[1,2,4]triazolo[1,5-a]pyrimidin-6-yl}methyl)-2-bromobenzoate]",7.2 nM
16,"Cc1nc2ncnn2c(N)c1Cc1ccc(Br)c(N2CCC(F)(F)C2)n1 [Example 23.1, 6-{[5-Bromo-6-(3,3-difluoropyrrolidin-1-yl)pyridin-2-yl]methyl}-5-methyl-[1,2,4]triazolo[1,5-a]pyrimidin-7-amine]",0.25 nM
17,Cc1nc2ncnn2c(N)c1Cc1ccc(Br)c(N2CCC(F)(F)CC2)n1 [Example 23.2],0.29 nM
18,Cc1nc2ncnn2c(N)c1Cc1ccc(Br)c(N2CC(F)(F)C2)n1 [Example 23.3],0.36 nM
19,Cc1nc2ncnn2c(N)c1Cc1ccc(Br)c(N2CCC(C(F)(F)F)C2)n1 (centres unmarked) [Example 23.4],0.7 nM
20,Cc1nc2ncnn2c(N)c1Cc1ccc(Br)c(N2CCC(O)(C(F)(F)F)C2)n1 (centres unmarked) [Example 23.5],0.83 nM
21,Cc1nc2ncnn2c(N)c1Cc1ccc(Br)c(N2Cc3ccc(F)cc3C2)n1 [Example 23.6],0.86 nM
22,Cc1nc2ncnn2c(N)c1Cc1ccc(Br)c(N2CC(C(F)(F)F)C2)n1 [Example 23.7],7.7 nM
23,"Cc1nc2ncnn2c(N)c1Cc1ccc(C(F)(F)F)c(C#N)n1 [Example 24.1, 6-({7-Amino-5-methyl-[1,2,4]triazolo[1,5-a]pyrimidin-6-yl}methyl)-3-(trifluoromethyl)pyridine-2-carbonitrile]",4.6 nM
24,"COc1cc(C(F)(F)F)ccc1Cc1c(Cl)nc2ncnn2c1N [Example 25.1, 5-Chloro-6-{[2-methoxy-4-(trifluoromethyl)phenyl]methyl}-[1,2,4]triazolo[1,5-a]pyrimidin-7-amine]",0.83 nM
25,COc1cc(Cc2c(Cl)nc3ncnn3c2N)ccc1C(F)(F)F [Example 25.2],1 nM
26,Nc1c(Cc2ccc(C(F)(F)F)cc2)c(Cl)nc2ncnn12 [Example 25.3],5.7 nM
